# Reference: patent publication US11731943B2, “Therapeutic compounds, compositions and methods of use thereof” (priority 2016, dated 2023)
# pIC50, pKi: −log10 of the molar value.
# Tests used:
# [1] = target: isolated recombinant JAK2 kinase domain (Homo sapiens (Human), UniProt O60674); experiment: JAK2 enzyme assay (Caliper LabChip, Ki); format: biochemical
# Summary of the method: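 Caliper LabChip readout of phosphorylated product as a fraction of total substrate, a fluorescently N-terminally labelled JAK3-derived peptide. Isolated human JAK kinase domains were incubated 30 min at 22 °C before EDTA quench (50 mM final).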
# [2] = test system: JAK1-dependent STAT6 phosphorylation downstream of IL-13 stimulation in BEAS-2B human bronchial epithelial cells; experiment: JAK1 pathway assay in BEAS-2B cells (IL-13-pSTAT6, MSD); format: cell-based; conditions: Homo sapiens, BEAS-2B, BEAS-2B cells, IL-13 stimulation; read-out: IL-13 p-STAT6 BEAS-2B IC50
# [3] = target: isolated recombinant JAK1 kinase domain (Homo sapiens (Human), UniProt P23458); experiment: JAK1 enzyme assay (Caliper LabChip, Ki); format: biochemical; conditions: read-out: JAK1 Ki
# Chain of isolated recombinant JAK1 kinase domain (P23458 875-1153): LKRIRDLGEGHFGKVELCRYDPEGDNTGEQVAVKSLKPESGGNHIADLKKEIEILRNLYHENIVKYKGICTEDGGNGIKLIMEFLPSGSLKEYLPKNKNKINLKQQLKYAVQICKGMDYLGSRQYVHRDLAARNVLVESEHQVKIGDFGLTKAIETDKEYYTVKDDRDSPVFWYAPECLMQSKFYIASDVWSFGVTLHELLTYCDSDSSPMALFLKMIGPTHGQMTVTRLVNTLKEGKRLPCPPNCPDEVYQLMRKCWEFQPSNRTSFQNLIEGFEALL
# Summary of the method: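 Ki derived via Morrison tight-binding model, ATP-competitive correction applied. Read-out: product/total ratio of a 5-carboxyfluorescein-tagged JAK3 peptide separated on Caliper LabChip after phosphorylation by isolated human JAK1 kinase domain (22 °C, 30 min; EDTA quench, 50 mM final).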
# Chain of isolated recombinant JAK2 kinase domain (O60674 849-1124): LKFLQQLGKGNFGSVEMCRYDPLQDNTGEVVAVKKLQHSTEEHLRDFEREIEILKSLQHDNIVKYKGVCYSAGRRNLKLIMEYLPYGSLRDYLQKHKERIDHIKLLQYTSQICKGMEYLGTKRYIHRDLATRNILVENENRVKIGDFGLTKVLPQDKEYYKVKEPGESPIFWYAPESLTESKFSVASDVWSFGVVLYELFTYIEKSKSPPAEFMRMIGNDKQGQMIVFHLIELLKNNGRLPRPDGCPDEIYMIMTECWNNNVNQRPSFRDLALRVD
SMILES,pKi [1],pIC50 [2],pKi [3]
"C#Cc1ccc(CN2CCC(CC#N)(n3cc(C(N)=O)c(NC(=O)OC)n3)C(F)C2)c(Cl)c1 (stereo not drawn) [Example 289, methyl N-[4-carbamoyl-1-[1-[(2-chloro-4-ethynyl-phenyl)methyl]-4-(cyanomethyl)-3-fluoro-4-piperidyl]pyrazol-3-yl]carbamate]",9.26,7.82,9.59
"N#CCC1(n2cc(C(N)=O)c(NC(=O)C3CC3)n2)CCC(Nc2ccccc2Cl)CC1 (stereo not drawn) [Example 290, 1-[4-(2-chloroanilino)-1-(cyanomethyl)cyclohexyl]-3-(cyclopropanecarbonylamino) pyrazole-4-carboxamide]",7.89,7.09,8.96
"CC1(Oc2ccc(OC(F)F)cc2)CN(C2CCC(CC#N)(n3cc(C(N)=O)c(NC(=O)C4CC4)n3)CC2)C1 (stereo not drawn) [Example 291, 1-[1-(cyanomethyl)-4-[3-[4-(difluoromethoxy)phenoxy]-3-methyl-azetidin-1-yl]cyclohexyl]-3-(cyclopropanecarbonylamino) pyrazole-4-carboxamide]",8.68,7.27,9.07
"COC(=O)Nc1nn(C2(CC#N)CCN(Cc3cc(O)c(C)cc3F)CC2F)cc1C(N)=O (stereo not drawn) [Example 292, methyl N-[4-carbamoyl-1-[4-(cyanomethyl)-3-fluoro-1-[(2-fluoro-5-hydroxy-4-methyl-phenyl)methyl]-4-piperidyl]pyrazol-3-yl]carbamate]",9.15,7.31,9.26
"COC(=O)Nc1nn(C2(CC#N)CCN(Cc3cc(O)cc(F)c3)CC2F)cc1C(N)=O (stereo not drawn) [Example 293, methyl N-[4-carbamoyl-1-[4-(cyanomethyl)-3-fluoro-1-[(3-fluoro-5-hydroxy-phenyl)methyl]-4-piperidyl]pyrazol-3-yl]carbamate]",9.47,7.26,9.52
"C#Cc1ccc(OC2(C)CN(C3CCC(CC#N)(n4cc(C(N)=O)c(NC(=O)C5CC5)n4)CC3)C2)cc1 (stereo not drawn) [Example 294, 1-(1-(Cyanomethyl)-4-(3-(4-ethynylphenoxy)-3-methylazetidin-1-yl)cyclohexyl)-3-(cyclopropanecarboxamido)-1H-pyrazole-4-carboxamide]",8.96,7.33,9.13
"CC1(Oc2ccc(C(F)(F)F)cc2)CN(C2CCC(CC#N)(n3cc(C(N)=O)c(NC(=O)C4CC4)n3)CC2)C1 (stereo not drawn) [Example 295, 1-[1-(cyanomethyl)-4-[3-methyl-3-[4-(trifluoromethyl)phenoxy]azetidin-1-yl]cyclohexyl]-3-(cyclopropanecarbonylamino) pyrazole-4-carboxamide]",8.54,7.07,8.70
"COC(=O)Nc1nn(C2(CC#N)CCN(Cc3cc(O)c(Br)cc3Cl)CC2F)cc1C(N)=O (stereo not drawn) [Example 296, methyl N-[1-[1-[(4-bromo-2-chloro-5-hydroxy-phenyl)methyl]-4-(cyanomethyl)-3-fluoro-4-piperidyl]-4-carbamoyl-pyrazol-3-yl]carbamate]",9.23,7.28,9.25
"C#Cc1ccc(CN2CCC(CC#N)(n3cc(C(N)=O)c(NC(=O)OC)n3)C(F)C2)c(F)c1 (stereo not drawn) [Example 297, methyl N-[4-carbamoyl-1-[4-(cyanomethyl)-1-[(4-ethynyl-2-fluoro-phenyl)methyl]-3-fluoro-4-piperidyl]pyrazol-3-yl]carbamate]",9.12,7.21,9.28
"CC#Cc1ccc(CN2CCC(CC#N)(n3cc(C(N)=O)c(NC(=O)OC)n3)C(F)C2)cc1 (stereo not drawn) [Example 298, Methyl (4-carbamoyl-1-(4-(cyanomethyl)-3-fluoro-1-(4-(prop-1-yn-1-yl)benzyl)piperidin-4-yl)-1H-pyrazol-3-yl)carbamate]",9.24,7.54,9.22
"N#CCC1(n2cc(C(N)=O)c(NC(=O)C3CC3)n2)CCN(Cc2ccc(C#CC3CC3)cc2)CC1 [Example 299, 1-(4-(Cyanomethyl)-1-(4-(cyclopropylethynyl)benzyl)piperidin-4-yl)-3-(cyclopropanecarboxamido)-1H-pyrazole-4-carboxamide]",8.52,7.07,8.96
"Cc1ccc(OC2(C)CN([C@H]3CC[C@](CC#N)(n4cc(C(N)=O)c(NC(=O)C5CC5)n4)CC3)C2)cc1 [Example 300, 1-[1-(cyanomethyl)-4-[3-methyl-3-(4-methylphenoxy)azetidin-1-yl]cyclohexyl]-3-(cyclopropanecarbonylamino) pyrazole-4-carboxamide]",8.89,7.37,8.82
"CCC1(n2cc(C(N)=O)c(Nc3ccc(S(=O)(=O)C(F)F)cc3)n2)CCN(Cc2cc(O)ccc2F)CC1 [Example 301, 3-((4-((Difluoromethyl)sulfonyl)phenyl)amino)-1-(4-ethyl-1-(2-fluoro-5-hydroxybenzyl)piperidin-4-yl)-1H-pyrazole-4-carboxamide]",8.70,7.00,8.82
"CC[C@]1(n2cc(C(N)=O)c(Nc3ccc(S(C)(=O)=O)cc3)n2)CC[C@H](N2CC(C(F)(F)F)C2)CC1 [Example 302, 1-((1S,4S)-1-ethyl-4-(3-(trifluoromethyl)azetidin-1-yl)cyclohexyl)-3-((4-(methylsulfonyl)phenyl)amino)-1H-pyrazole-4-carboxamide]",8.70,7.37,9.03
"CCOP(=O)(OCC)c1ccc(Nc2nn([C@]3(CC#N)CC[C@@H](N4CC(C(F)(F)F)C4)CC3)cc2C(N)=O)cc1 [Example 303, Diethyl (4-((4-carbamoyl-1-((1R,4R)-1-(cyanomethyl)-4-(3-(trifluoromethyl)azetidin-1-yl)cyclohexyl)-1H-pyrazol-3-yl)amino)phenyl)phosphonate]",9.18,7.47,9.41
CCC1(n2cc(C(N)=O)c(Nc3ccc(S(=O)(=O)C(F)F)cc3)n2)CCN(C(=O)CC#N)CC1 [Example 304],8.55,6.66,9.31
